These results are taken from US12577234B2, “Antagonists of the muscarinic acetylcholine receptor M4” (Vanderbilt University, priority 2017, dated 2026).

Molecules are shown by their SMILES.

In the test the target is T1, human mAChR M4 (Homo sapiens, UniProt P08173).
T1 construct: expressed in transfected cells; host or cells: CHO-K1 (ATCC), stably co-expressing chimeric G protein Gqi5
T1 sequence (P08173 1-479): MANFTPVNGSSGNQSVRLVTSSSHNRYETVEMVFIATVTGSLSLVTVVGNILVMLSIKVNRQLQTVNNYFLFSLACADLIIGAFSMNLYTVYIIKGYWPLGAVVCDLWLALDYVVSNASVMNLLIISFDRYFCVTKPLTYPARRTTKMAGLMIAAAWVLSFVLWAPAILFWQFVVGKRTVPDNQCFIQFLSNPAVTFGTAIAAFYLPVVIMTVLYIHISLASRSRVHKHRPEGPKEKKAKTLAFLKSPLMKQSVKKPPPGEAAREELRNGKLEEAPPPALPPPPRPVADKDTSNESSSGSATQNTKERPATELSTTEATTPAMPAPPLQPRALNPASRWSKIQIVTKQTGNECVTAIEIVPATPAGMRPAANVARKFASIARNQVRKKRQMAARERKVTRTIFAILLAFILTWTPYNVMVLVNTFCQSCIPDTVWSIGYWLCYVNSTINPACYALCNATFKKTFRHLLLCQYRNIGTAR
The experiment in a line: mAChR M4 cell-based functional assay (calcium mobilization, EC80 acetylcholine), human M4. Conditions: Table 9; for IC50: M4/Gqi5/CHO-K1 cells, decrease of EC80 acetylcholine response; for Emin: human M4, % ACh maximum at 30 μM. The essentials: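 CHO-K1 cells stably expressing human M4 with chimeric Gqi5; intracellular calcium rise read on FDSS as fluorescence static ratio at 1 Hz. Compounds in 10-point 1:3 dilution series; IC50 taken as concentration-dependent decrease of the EC80 acetylcholine response, four-parameter logistic fit.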

As a reminder, the IC50 is the concentration that gives 50% inhibition. With `Cc1cnn(C)c1-c1ccc(OCC2C[C@@H]3CN(CC4CCOCC4)C[C@@H]3C2)nn1` (stereo partly drawn) [Compound 84, (3aR,6aS)-5-[[6-(2,4-dimethylpyrazol-3-yl)pyridazin-3-yl]oxymethyl]-2-(tetrahydropyran-4-ylmethyl)-3,3a,4,5,6,6a-hexahydro-1H-cyclopenta[c]pyrrole], the IC50 was 3.09 µM and the Emin is listed as 10.9%.

As for `Cc1cnn(C)c1-c1ccc(OCC2C[C@@H]3CN(CC4CCCOC4)C[C@@H]3C2)nn1` (stereo partly drawn) [Compound 85, (3aR,6aS)-5-[[6-(2,4-dimethylpyrazol-3-yl)pyridazin-3-yl]oxymethyl]-2-(tetrahydropyran-3-ylmethyl)-3,3a,4,5,6,6a-hexahydro-1H-cyclopenta[c]pyrrole], the concentration for half-maximal inhibition (IC50) came to 4.6 µM and the Emin is recorded as 14.2%.

Take `Cc1cnn(C)c1-c1ccc(OCC2C[C@@H]3CN(Cc4ccccc4)C[C@@H]3C2)nn1` (stereo partly drawn) [Compound 86, (3aR,6aS)-2-benzyl-5-[[6-(2,4-dimethylpyrazol-3-yl)pyridazin-3-yl]oxymethyl]-3,3a,4,5,6,6a-hexahydro-1H-cyclopenta[c]pyrrole]: the IC50 was 2.86 µM and the Emin came to 9.09%.

Take `Cc1cnn(C)c1-c1ccc(OCC2C[C@@H]3CN(Cc4ccccc4F)C[C@@H]3C2)nn1` (stereo partly drawn) [Compound 87, (3aR,6aS)-5-[[6-(2,4-dimethylpyrazol-3-yl)pyridazin-3-yl]oxymethyl]-2-[(2-fluorophenyl)methyl]-3,3a,4,5,6,6a-hexahydro-1H-cyclopenta[c]pyrrole]: the IC50 turned out to be 4.01 µM and the Emin was found to be 7.39%.

For the compound `Cc1cnn(C)c1-c1ccc(OCC2C[C@@H]3CN(Cc4ccc(F)cc4)C[C@@H]3C2)nn1` (stereo partly drawn) [Compound 88, (3R,6aS)-5-[[6-(2,4-dimethylpyrazol-3-yl)pyridazin-3-yl]oxymethyl]-2-[(4-fluorophenyl)methyl]-3,3a,4,5,6,6a-hexahydro-1H-cyclopenta[c]pyrrole], the IC50 was 4.19 µM and the Emin worked out at 9.57%.

With `Cc1cnn(C)c1-c1ccc(OCC2C[C@@H]3CN(Cc4ccccn4)C[C@@H]3C2)nn1` (stereo partly drawn) [Compound 89, (3aR,6aS)-5-[[6-(2,4-dimethylpyrazol-3-yl)pyridazin-3-yl]oxymethyl]-2-(2-pyridylmethyl)-3,3a,4,5,6,6a-hexahydro-1H-cyclopenta[c]pyrrole], the IC50 worked out at 8.08 µM and the Emin is on record as 18.1%.

Turning to `Cc1cccnc1CN1C[C@H]2CC(COc3ccc(-c4c(C)cnn4C)nn3)C[C@H]2C1` (stereo partly drawn) [Compound 90, (3aR,6aS)-5-[[6-(2,4-dimethylpyrazol-3-yl)pyridazin-3-yl]oxymethyl]-2-[(3-methyl-2-pyridyl)methyl]-3,3a,4,5,6,6a-hexahydro-1H-cyclopenta[c]pyrrole], the IC50 amounted to 1.43 µM and the Emin was determined as 7.98%.

`Cc1cnn(C)c1-c1ccc(OCC2C[C@@H]3CN(Cc4ccc5c(c4)OCO5)C[C@@H]3C2)nn1` (stereo partly drawn) [Compound 91, (3aR,6aS)-2-(1,3-benzodioxol-5-ylmethyl)-5-[[6-(2,4-dimethylpyrazol-3-yl)pyridazin-3-yl]oxymethyl]-3,3a,4,5,6,6a-hexahydro-1H-cyclopenta[c]pyrrole]: the 50% inhibitory concentration (IC50) stood at 0.371 µM and the Emin came out at 4.18%.

In the case of `Cc1nn(C)cc1-c1ccc(OCC2C[C@@H]3CN(CCC(C)(C)C)C[C@@H]3C2)nn1` (stereo partly drawn) [Compound 92, (3sR,6aS)-2-(3,3-dimethylbutyl)-5-[[6-(1,3-dimethylpyrazol-4-yl)pyridazin-3-yl]oxymethyl]-3,3a,4,5,6,6a-hexahydro-1H-cyclopenta[c]pyrrole], the half-inhibitory concentration (IC50) was 0.0583 µM and the Emin was 4.01%.

As for `Cc1nn(C)cc1-c1ccc(OCC2C[C@@H]3CN(CC45CC6CC(CC(C6)C4)C5)C[C@@H]3C2)nn1` (stereo partly drawn) [Compound 93, (3aR,6aS)-2-(1-adamantylmethyl)-5-[[6-(1,3-dimethylpyrazol-4-yl)pyridazin-3-yl]oxymethyl]-3,3a,4,5,6,6a-hexahydro-1H-cyclopenta[c]pyrrole], the IC50 is 0.0821 µM and the Emin was found to be 4.05%.

In the case of `CCC(C)CN1C[C@H]2CC(COc3ccc(-c4cn(C)nc4C)nn3)C[C@H]2C1` (stereo partly drawn) [Compound 95, (3aR,6aS)-5-[[6-(1,3-dimethylpyrazol-4-yl)pyridazin-3-yl]oxymethyl]-2-(2-methylbutyl)-3,3a,4,5,6,6a-hexahydro-1H-cyclopenta[c]pyrrole], the concentration for half-maximal inhibition (IC50) turned out to be 0.659 µM and the Emin is given as 4.74%.

Take `CCCC(C)CN1C[C@H]2CC(COc3ccc(-c4cn(C)nc4C)nn3)C[C@H]2C1` (stereo partly drawn) [Compound 96, (3aR,6aS)-5-[[6-(1,3-dimethylpyrazol-4-yl)pyridazin-3-yl]oxymethyl]-2-(2-methylpentyl)-3,3a,4,5,6,6a-hexahydro-1H-cyclopenta[c]pyrrole]: the IC50 came to 0.301 µM and the Emin was determined as 4.62%.

As to `Cc1nn(C)cc1-c1ccc(OCC2C[C@@H]3CN(CC4CCCCC4)C[C@@H]3C2)nn1` (stereo partly drawn) [Compound 97, (3aR,6aS)-2-(cyclohexylmethyl)-5-[[6-(1,3-dimethylpyrazol-4-yl)pyridazin-3-yl]oxymethyl]-3,3a,4,5,6,6a-hexahydro-1H-cyclopenta[c]pyrrole], the IC50 stood at 0.167 µM and the Emin worked out at 4.44%.

Take `Cc1nn(C)cc1-c1ccc(OCC2C[C@@H]3CN(CC4CCOCC4)C[C@@H]3C2)nn1` (stereo partly drawn) [Compound 98, (3aR,6aS)-5-[[6-(1,3-dimethylpyrazol-4-yl)pyridazin-3-yl]oxymethyl]-2-(tetrahydropyran-4-ylmethyl)-3,3a,4,5,6,6a-hexahydro-1H-cyclopenta[c]pyrrole]: the IC50 was determined as 2.23 µM and the Emin is 8.70%.

Consider `Cc1nn(C)cc1-c1ccc(OCC2C[C@@H]3CN(CC4CCCOC4)C[C@@H]3C2)nn1` (stereo partly drawn) [Compound 99, (3aR,6aS)-5-[[6-(1,3-dimethylpyrazol-4-yl)pyridazin-3-yl]oxymethyl]-2-(tetrahydropyran-3-ylmethyl)-3,3a,4,5,6,6a-hexahydro-1H-cyclopenta[c]pyrrole], for which the IC50 was 2.49 µM and the Emin stood at 7.75%.

In the case of `Cc1nn(C)cc1-c1ccc(OCC2C[C@@H]3CN(Cc4ccccc4)C[C@@H]3C2)nn1` (stereo partly drawn) [Compound 100, (3aR,6aS)-2-benzyl-5-[[6-(1,3-dimethylpyrazol-4-yl)pyridazin-3-yl]oxymethyl]-3,3a,4,5,6,6a-hexahydro-1H-cyclopenta[c]pyrrole], the IC50 amounted to 2.38 µM and the Emin is reported as 5.92%.

`Cc1nn(C)cc1-c1ccc(OCC2C[C@@H]3CN(Cc4ccccc4F)C[C@@H]3C2)nn1` (stereo partly drawn) [Compound 101, (3aR,6aS)-5-[[6-(1,3-dimethylpyrazol-4-yl)pyridazin-3-yl]oxymethyl]-2-[(2-fluorophenyl)methyl]-3,3a,4,5,6,6a-hexahydro-1H-cyclopenta[c]pyrrole]: the IC50 was determined as 2.54 µM and the Emin is given as 6.60%.

On to `Cc1nn(C)cc1-c1ccc(OCC2C[C@@H]3CN(Cc4ccc(F)cc4)C[C@@H]3C2)nn1` (stereo partly drawn) [Compound 102, (3aR,6aS)-5-[[6-(1,3-dimethylpyrazol-4-yl)pyridazin-3-yl]oxymethyl]-2-[(4-fluorophenyl)methyl]-3,3a,4,5,6,6a-hexahydro-1H-cyclopenta[c]pyrrole], for which the concentration for half-maximal inhibition (IC50) worked out at 2.58 µM and the Emin was 6.62%.

Turning to `Cc1nn(C)cc1-c1ccc(OCC2C[C@@H]3CN(Cc4ccccn4)C[C@@H]3C2)nn1` (stereo partly drawn) [Compound 103, (3aR,6aS)-5-[[6-(1,3-dimethylpyrazol-4-yl)pyridazin-3-yl]oxymethyl]-2-(2-pyridylmethyl)-3,3a,4,5,6,6a-hexahydro-1H-cyclopenta[c]pyrrole], the half-inhibitory concentration (IC50) amounted to 9.87 µM and the Emin is recorded as 14.7%.

With `Cc1cccnc1CN1C[C@H]2CC(COc3ccc(-c4cn(C)nc4C)nn3)C[C@H]2C1` (stereo partly drawn) [Compound 104, (3aR,6aS)-5-[[6-(1,3-dimethylpyrazol-4-yl)pyridazin-3-yl]oxymethyl]-2-[(3-methyl-2-pyridyl)methyl]-3,3a,4,5,6,6a-hexahydro-1H-cyclopenta[c]pyrrole], the 50% inhibitory concentration (IC50) was 1.53 µM and the Emin turned out to be 6.78%.

As to `Cc1nn(C)cc1-c1ccc(OCC2C[C@@H]3CN(Cc4ccc5c(c4)OCO5)C[C@@H]3C2)nn1` (stereo partly drawn) [Compound 105, (3aR,6aS)-2-(1,3-benzodioxol-5-ylmethyl)-5-[[6-(1,3-dimethylpyrazol-4-yl)pyridazin-3-yl]oxymethyl]-3,3a,4,5,6,6a-hexahydro-1H-cyclopenta[c]pyrrole], the concentration for half-maximal inhibition (IC50) was found to be 0.329 µM and the Emin was 5.63%.

Take `CC(C)(C)CCN1C[C@H]2CC(COc3ccc(-c4cc(F)ccc4Cl)nn3)C[C@H]2C1` (stereo partly drawn) [Compound 106, (3aR,6aS)-5-[[6-(2-chloro-5-fluoro-phenyl)pyridazin-3-yl]oxymethyl]-2-(3,3-dimethylbutyl)-3,3a,4,5,6,6a-hexahydro-1H-cyclopenta[c]pyrrole]: the concentration for half-maximal inhibition (IC50) is 0.143 µM and the Emin is 3.60%.
